Broadly, the Emax is the maximal effect, on the per cent scale that the assay sets.

Results on two molecules are retold here after paper PMC7080406 (eLife, 2020).

Assay [1] addresses T1, MT1 (Homo sapiens, UniProt P48039).
T1 construct: expressed in transfected cells; host or cells: HEK293T (ATCC CRL-11268), transient transfection
Description: GloSensor Gi/o-mediated cAMP production inhibition assay, MT1. In kind it is cell-based. As to conditions: for EC50: Gi/o mediated. The method, then:
(§1) Briefly, HEK293 T cells (as above) were transiently co-transfected with receptor (MT1 or MT2) and GloSensor cAMP (Promega) plasmids overnight, plated in Poly-L-Lysine coated 384-well white clear bottom plates in DMEM + 1% dialyzed FBS. Cells were used for assays at a minimum of 6 hr after plating. Culture medium was first removed and cells were stimulated with drugs in assay buffer (1x HBSS, 20 mM HEPES, 1 mg/ml BSA, 0.1 mg/ml ascorbic acid, pH 7.4) for 15 min at room temperature (this and all the following steps), followed by addition of a mixture of isoproterenol (final of 100 nM) and luciferin (final of 1 mM) for Gi/o-cAMP production inhibition assays and luciferin (final of 1 mM) for Gs-cAMP production assays. The plates were counted for luminescence after 25 min in a luminescence plate reader. Results were analyzed using GraphPad Prism 7.0.
In general terms: cAMP levels reflect the balance of adenylyl cyclase and phosphodiesterase activity.

Assay [2] concerns the target T2, MT1 N162Q mutant receptor (Homo sapiens, UniProt P48039, N162Q).
T2 construct: expressed in transfected cells; host or cells: HTLA cells (HEKT based)
Description: Tango β-arrestin recruitment assay, MT1 N162Q mutant. The format is cell-based. On the procedure: (§2) In brief, HTLA cells were transiently transfected with receptor TANGO DNA constructs overnight in DMEM with 10% FBS. Transfected cells were then plated into poly-L-Lys coated 384-well plates using DMEM supplemented with 1% dialyzed FBS. After 6 hr incubation, drug dilutions, prepared in DMEM with 1% dFBS, were added for incubation overnight (16–20 hr). Medium and drug solutions were removed, Bright-Glo reagent (20 uL/well) was added for luminescence counting 20 min later. Results were analyzed in GraphPad Prism 7.0.

The target in assay [3] is T3, MT2 (Homo sapiens, UniProt P49286).
T3 sequence (P49286 1-362): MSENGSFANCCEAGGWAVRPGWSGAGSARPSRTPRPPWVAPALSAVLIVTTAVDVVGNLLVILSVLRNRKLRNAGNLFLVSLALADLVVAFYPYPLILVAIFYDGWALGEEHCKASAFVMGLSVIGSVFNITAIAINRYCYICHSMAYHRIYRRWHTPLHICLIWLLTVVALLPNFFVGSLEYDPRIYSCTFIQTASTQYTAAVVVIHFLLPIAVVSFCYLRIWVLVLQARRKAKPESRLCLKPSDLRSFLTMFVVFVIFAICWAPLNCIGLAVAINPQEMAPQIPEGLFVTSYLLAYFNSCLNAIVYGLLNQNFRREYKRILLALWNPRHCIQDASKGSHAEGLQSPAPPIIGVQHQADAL
Description: [3H]melatonin competition radioligand binding, MT2 membranes. Details: expressed in transfected cells; host or cells: HEK293T (ATCC CRL-11268), transient transfection. Conditions: read-out: MT2 pKi ± SEM (converted). The method, then: (§3) The Radioligand binding assays were conducted by the NIMH Psychoactive Drug Screening Program (PDSP). The NIMH PDSP is directed by Bryan L. Roth, MD, PhD, at the University of North Carolina at Chapel Hill, North Carolina, and Program Officer Jamie Driscoll at NIMH, Bethesda, MD. Binding assay procedures and protocols are also available online at http://pdspdb.unc.edu/pdspWeb/?site=assays. […] Assay plates were sealed and incubated for 4 hr at 37°C in a humidified incubator until harvesting. Plates were harvested using vacuum filtration onto 0.3% polyethyleneimine pre-soaked 96-well Filtermat A (PerkinElmer) and washed three times with cold wash buffer (50 mM Tris, pH 7.4). Filters were dried and melted with a scintillation cocktail (Meltilex, PerkinElmer). Radioactivity was counted using a Wallac TriLux Microbeta counter (PerkinElmer). Results were analyzed using GraphPad Prism 7.0.

Another assay concerns the target T4, MT1 wildtype (WT) (Homo sapiens, UniProt P48039).
T4 construct: host or cells: HTLA cells (HEKT based)
The experiment in a line: Tango β-arrestin recruitment assay, MT1 wildtype. The format is cell-based. On the procedure:
as §2

In assay [4] the target is T5, MT1 Y281F mutant receptor (Homo sapiens, UniProt P48039, Y281F).
T5 construct: expressed in transfected cells; host or cells: HTLA cells (HEKT based)
T5 sequence (P48039 whole entry Y281F): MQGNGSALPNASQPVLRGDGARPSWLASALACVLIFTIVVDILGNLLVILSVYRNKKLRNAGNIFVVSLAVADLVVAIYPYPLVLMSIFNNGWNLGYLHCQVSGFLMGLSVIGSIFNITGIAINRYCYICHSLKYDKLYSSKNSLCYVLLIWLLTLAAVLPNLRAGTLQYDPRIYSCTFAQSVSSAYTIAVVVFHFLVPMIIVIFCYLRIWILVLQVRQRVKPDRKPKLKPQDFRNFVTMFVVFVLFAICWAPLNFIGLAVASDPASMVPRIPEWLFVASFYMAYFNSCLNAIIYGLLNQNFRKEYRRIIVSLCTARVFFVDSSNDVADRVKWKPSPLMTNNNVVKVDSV
The experiment in a line: Tango β-arrestin recruitment assay, MT1 Y281F mutant. The format is cell-based. Conditions: normalized individually (basal 0%, maximum 100%); mean ± SEM, minimum of 3 assays; read-out: pEC50, Tango, MT1 Y281F (converted). The method, then: as §2
Background: Activated receptors often draw arrestin, which recruitment assays turn into a signal.

Assay [5] has as its system panel of 47 common drug targets (GPCRs, ion-channels and transporters). The experiment in a line: Binding profiling at a panel of 47 common drug targets. As to conditions: final concentration of 10 μM. On the procedure:
as §3, with “http://pdspdb.unc.edu/pdspWeb/?site=assays. All the radioligand binding assays were performed using membranes prepared from transiently transfected HEK293T cells (purchased from ATCC, CRL-11268, authenticated by the supplier using morphology, growth characteristics, and STR profiling and certified mycoplasma-free) and in standard binding buffer (50 mM Tris, 10 mM MgCl2, 0.1 mM EDTA, 0.1% BSA, 0.01% ascorbic acid, pH 7.4) as recently reported ([Stauch et al., 2019]).” for “http://pdspdb.unc.edu/pdspWeb/?site=assays.”

The target of assay [6] is T1, MT1. The experiment in a line: [3H]melatonin competition radioligand binding, MT1 membranes. As to conditions: read-out: MT1 pKi ± SEM (converted). On the procedure:
as §3

Assay [7] deals with T3, MT2. The experiment in a line: GloSensor Gi/o-mediated cAMP production inhibition assay, MT2. As to conditions: for MT2/MT1 Selectivity: Antilog (log(Emax/EC50) MT2 - log (Emax/EC50) MT1), values below 1 = MT1 selectivity; for EC50: Gi/o mediated; for Emax: MT2, activation compared to melatonin, read-out: MT2 Emax ± SEM; for MT2 LE: ligand efficiency (based on EC50). The format is cell-based. Further details: expressed in transfected cells; host or cells: HEK293T (ATCC CRL-11268), transient transfection. The method, then: as §1

Assay [8] concerns the target T3, MT2. Description: Tango β-arrestin recruitment assay, MT2. Details: expressed in transfected cells; transient transfection. Conditions: result in words; compared to G-protein. The format is cell-based. On the procedure:
as §2, with “Tango arrestin recruitment assays were carried out according to the previously published procedure [Kroeze et al. (2015)]. In” for “In”

Assay [9] concerns the target T3, MT2. The experiment in a line: Bias factor, Gi-cAMP versus Tango (Black and Leff operational model), MT2. The format is cell-based. Further details: expressed in transfected cells; host or cells: HEK293T (ATCC CRL-11268), transient transfection. As to conditions: G-protein over β-arrestin at MT2; reference melatonin; 10^ΔΔLog(τ/KA). On the procedure:
Bias factors were estimated according to the published procedure [Kenakin et al. (2012)] with modifications. Briefly, normalized and pooled results were analyzed by fitting the Black and Leff operational model in Prism 7.0 to obtain Log(τ/KA) values for each pathway (Tango and Gi-cAMP). Within each signaling pathway, a difference of Log(τ/KA), ΔLog(τ/KA), between a test compound and selected reference (melatonin in this case) was calculated. For a testing compound, the difference of ΔLog(τ/KA), ΔΔLog(τ/KA), was then obtained between two pathways. The bias factor is 10^ΔΔLog(τ/KA).

Each structure is given as a SMILES string. Several values for one entry are separate records, joined by “and”; a condition that tells them apart may be missing. Equal values may be shown once. Entries after “also recorded” stand apart in the source; their conditions may differ. Read-outs that look alike come from different tables or passages of the source.

T1 sequence (P48039 whole entry): as the sequence (P48039 whole entry Y281F) above, with F281Y counted along it
T2 sequence (P48039 whole entry N162Q): as the sequence (P48039 whole entry Y281F) above, with N162Q, F281Y counted along it
T4 sequence (P48039 whole entry): as the sequence (P48039 whole entry Y281F) above, with F281Y counted along it

`COc1cccc(CNc2nc(C3CC3)no2)c1` [Compound 37, 3-cyclopropyl-N-[(3-methoxyphenyl)methyl]-1,2,4-oxadiazol-5-amine]: the EC50 at MT1 [1] (read-out: MT1 EC50) was > 30000 nM; in assay [2] (normalized individually (basal 0%, maximum 100%), mean ± SEM, minimum of 3 assays, read-out: pEC50, Tango, MT1 N162Q (converted)), 2240 nM; on MT1 wildtype (WT) (normalized individually (basal 0%, maximum 100%), mean ± SEM, minimum of 3 assays, read-out: pEC50, Tango, MT1 WT (converted)), 4170 nM; in assay [4], 11700 nM; at MT2 [7] (read-out: MT2 EC50), 141 nM. The “G-protein (Gi) signaling at MT1” value on MT1 [1] (result in words) was “devoid of Gi signaling; also recorded: completely lacks G-protein signaling”. In addition, the “increase of potency, MT1 N162Q versus WT” value in [2] (Tango) worked out at 2 fold. The results for the Ki at MT2 [3] and at MT1 [6] were 3550 nM and 8510 nM, respectively. The “β-arrestin activity at MT1” value at MT1 wildtype (WT) (result in words) is “substantial β-arrestin activity”. The “binding at panel of 47 common drug targets” value in [5] is on record as “did not show any substantial binding”. Moreover, the “MT2/MT1 Selectivity” value at MT2 [7] was >1000.0 fold. The Emax on MT2 [7] is 61.1 ± 9.1%. Further, the “MT2 LE” value at MT2 [7] is reported as 0.53 kcal/mol per non-hydrogen atom.
`COc1ccnc(N(C)CCNC(C)=O)n1` [Compound 21, N-{2-[(4-methoxypyrimidin-2-yl)(methyl)amino]ethyl}acetamide]: the EC50 at MT1 [1] (SEM, N = 3, read-out: MT1 pEC50 ± SEM (converted)) was 12.3 nM; at MT1 [1] (read-out: MT1 EC50) it was 12 nM; at MT2 [7] (SEM, N = 3, read-out: MT2 pEC50 ± SEM (converted)) it was 0.363 nM. Further, the “MT1 LE” value on MT1 [1] (ligand efficiency (based on EC50)) is reported as 0.69 kcal/mol per non-hydrogen atom. Moreover, the Emax at MT1 [1] (read-out: MT1 Emax ± SEM) came to 93.8 ± 2.5%; on MT2 [7] it was 86.1 ± 3.2%. Besides, the “β-arrestin signaling / arrestin recruitment at MT2” value on MT2 [8] was “dramatically reduced arrestin recruitment; also recorded: marked reduction in β-arrestin signaling compared to G-protein”. Also, the Ki on MT2 [3] is 123 nM; on MT1 [6], 490 nM. The molecule also had a bias factor on MT2 [9] of 15.5. Besides, the “binding at panel of 47 common drug targets” value in [5] is listed as “did not show any substantial binding”. Besides, the “MT2/MT1 Selectivity” value on MT2 [7] was 30 fold and 30.6 fold. The “MT2 LE” value at MT2 [7] was 0.83 kcal/mol per non-hydrogen atom.
